Active and inactive are the calls of the source. The rule behind the calls is not given here.
System: rodent lifetime carcinogenesis bioassay, tumor incidence TD50
Assay: carcinogenic potency in animals, long-term in vivo studies, CPDB compilation (AID 1745844)

How did the TD50 (mouse, strain B6C3F1, females, by gavage, site: any site (literature study), lesion: several types, types named in the paper, dosed 103 weeks, study length 106 weeks) turn out when `CC(CCl)OC(C)CCl` (stereo not given) was run?
The TD50 was 231 mg/kg/day.

What about the TD50 (mouse, strain B6C3F1, females, by gavage, site: lung, lesion: alveolar/bronchiolar adenoma + alveolar/bronchiolar carcinoma, dosed 103 weeks, study length 106 weeks) of the same compound?
The TD50 was 311 mg/kg/day.

What about the TD50 (mouse, strain B6C3F1, females, by gavage, site: lung, lesion: alveolar/bronchiolar adenoma, dosed 103 weeks, study length 106 weeks) of the same compound?
Its TD50 is 381 mg/kg/day.

What about the TD50 (mouse, strain B6C3F1, females, by gavage, site: stomach, lesion: squamous-cell carcinoma + squamous-cell papilloma, dosed 103 weeks, study length 106 weeks) of the same compound?
The TD50 was 1650 mg/kg/day.

What about the TD50 (mouse, strain B6C3F1, males, by gavage, site: any site (literature study), lesion: several types, types named in the paper, dosed 103 weeks, study length 105 weeks) of the same compound?
Its TD50 is 116 mg/kg/day.

And the TD50 (mouse, strain B6C3F1, males, by gavage, site: liver, lesion: hepatocellular adenoma + hepatocellular carcinoma + neoplastic nodule, dosed 103 weeks, study length 105 weeks)?
Its TD50 is 138 mg/kg/day.

What about the TD50 (mouse, strain B6C3F1, males, by gavage, site: liver, lesion: hepatocellular adenoma + hepatocellular carcinoma, dosed 103 weeks, study length 105 weeks) of the same compound?
Its TD50 is 138 mg/kg/day.

And the TD50 (mouse, strain B6C3F1, males, by gavage, site: liver, lesion: hepatocellular carcinoma, dosed 103 weeks, study length 105 weeks)?
Its TD50 is 229 mg/kg/day.

What about the TD50 (mouse, strain B6C3F1, males, by gavage, site: lung, lesion: alveolar/bronchiolar adenoma + alveolar/bronchiolar carcinoma, dosed 103 weeks, study length 105 weeks) of the same compound?
The TD50 was 259 mg/kg/day.

And the TD50 (mouse, strain B6C3F1, males, by gavage, site: lung, lesion: alveolar/bronchiolar adenoma, dosed 103 weeks, study length 105 weeks)?
The TD50 was 306 mg/kg/day.

And the TD50 (rat, strain Fischer 344, females, by gavage, site: any site (literature study), lesion: several types, types named in the paper, dosed 103 weeks, study length 105 weeks)?
The TD50 was 65.6 mg/kg/day (inactive).

What about the TD50 (rat, strain Fischer 344, males, by gavage, site: any site (literature study), lesion: several types, types named in the paper, dosed 103 weeks, study length 104 weeks) of the same compound?
The TD50 was 101 mg/kg/day (inactive).

How did the TD50 (mouse, strain CFLP, males, by gavage, site: any site (literature study), lesion: malignant tumor, dosed 80 weeks, study length 104 weeks) turn out when `CC(=O)OC1CC(C)CCC1C(C)C` (stereo not given) (tested in a mixture with another compound) was run?
The TD50 was 112 mg/kg/day.

For `Clc1cc(Cl)cc(-c2cc(Cl)cc(Cl)c2)c1`, which carcinogen call (rat, strain Donryu, females, in feed, site: liver, lesion: one or several types, types not named, dosed 26 weeks, study length 84 weeks) is on record?
The carcinogen call was “negative (inactive)”.

Which TD50 (mouse, strain B6C3F1, females, in drinking water, site: any site (literature study), lesion: several types, types named in the paper, dosed 90 weeks, study length 90 weeks) does the source give for `C1COCCO1` here?
The TD50 was 847 mg/kg/day.

And the TD50 (mouse, strain B6C3F1, females, in drinking water, site: liver, lesion: hepatocellular adenoma + hepatocellular carcinoma + neoplastic nodule, dosed 90 weeks, study length 90 weeks)?
The TD50 was 594 mg/kg/day.

What about the TD50 (mouse, strain B6C3F1, females, in drinking water, site: liver, lesion: hepatocellular adenoma + hepatocellular carcinoma, dosed 90 weeks, study length 90 weeks) of the same compound?
Its TD50 is 594 mg/kg/day.

What about the TD50 (mouse, strain B6C3F1, females, in drinking water, site: liver, lesion: hepatocellular carcinoma, dosed 90 weeks, study length 90 weeks) of the same compound?
Its TD50 is 938 mg/kg/day.

What about the TD50 (mouse, strain B6C3F1, females, in drinking water, site: lung, lesion: alveolar/bronchiolar adenoma + alveolar/bronchiolar carcinoma, dosed 90 weeks, study length 90 weeks) of the same compound?
Its TD50 is 71900 mg/kg/day.

What about the TD50 (mouse, strain B6C3F1, males, in drinking water, site: all sites, lesion: hemangioma + hemangiosarcoma, dosed 90 weeks, study length 91 weeks) of the same compound?
Its TD50 is 3150 mg/kg/day.

And the TD50 (mouse, strain B6C3F1, males, in drinking water, site: all sites, lesion: lymphoma, dosed 90 weeks, study length 91 weeks)?
The TD50 was 3930 mg/kg/day.

What about the TD50 (mouse, strain B6C3F1, males, in drinking water, site: any site (literature study), lesion: several types, types named in the paper, dosed 90 weeks, study length 91 weeks) of the same compound?
Its TD50 is 1880 mg/kg/day.

And the TD50 (mouse, strain B6C3F1, males, in drinking water, site: liver, lesion: hepatocellular adenoma + hepatocellular carcinoma + neoplastic nodule, dosed 90 weeks, study length 91 weeks)?
Its TD50 is 1460 mg/kg/day.

And the TD50 (mouse, strain B6C3F1, males, in drinking water, site: liver, lesion: hepatocellular adenoma + hepatocellular carcinoma, dosed 90 weeks, study length 91 weeks)?
The TD50 was 1460 mg/kg/day.

And the TD50 (mouse, strain B6C3F1, males, in drinking water, site: liver, lesion: hepatocellular carcinoma, dosed 90 weeks, study length 91 weeks)?
The TD50 was 1420 mg/kg/day.

What about the TD50 (mouse, strain BDF1, females, in drinking water, site: liver, lesion: hepatocellular adenoma, dosed 104 weeks, study length 105 weeks) of the same compound?
The TD50 was 83.1 mg/kg/day.

And the TD50 (mouse, strain BDF1, females, in drinking water, site: liver, lesion: hepatocellular carcinoma, dosed 104 weeks, study length 105 weeks)?
The TD50 was 404 mg/kg/day.

What about the TD50 (mouse, strain BDF1, females, in drinking water, site: liver, lesion: several types, types named in the paper, dosed 104 weeks, study length 105 weeks) of the same compound?
The TD50 was 65.5 mg/kg/day.

What about the TD50 (mouse, strain BDF1, females, in drinking water, site: nasal cavity, lesion: adenocarcinoma, dosed 104 weeks, study length 105 weeks) of the same compound?
The TD50 was 72100 mg/kg/day.

What about the TD50 (mouse, strain BDF1, males, in drinking water, site: liver, lesion: hepatocellular adenoma, dosed 104 weeks, study length 105 weeks) of the same compound?
Its TD50 is 519 mg/kg/day.

And the TD50 (mouse, strain BDF1, males, in drinking water, site: liver, lesion: hepatocellular carcinoma, dosed 104 weeks, study length 105 weeks)?
The TD50 was 1040 mg/kg/day.

What about the TD50 (mouse, strain BDF1, males, in drinking water, site: liver, lesion: several types, types named in the paper, dosed 104 weeks, study length 105 weeks) of the same compound?
The TD50 was 982 mg/kg/day.

What about the TD50 (mouse, strain BDF1, males, in drinking water, site: nasal cavity, lesion: esthesioneuroepithelioma, dosed 104 weeks, study length 105 weeks) of the same compound?
Its TD50 is 60100 mg/kg/day.

And the TD50 (rat, strain Charles River CD (Sprague-Dawley), males, in drinking water, site: nasal cavity, lesion: squamous-cell carcinoma, dosed 56 weeks, study length 69 weeks)?
Its TD50 is 2950 mg/kg/day.

And the TD50 (rat, strain F344/DuCrj, females, in drinking water, site: liver, lesion: hepatocellular adenoma, dosed 104 weeks, study length 105 weeks)?
Its TD50 is 182 mg/kg/day.

And the TD50 (rat, strain F344/DuCrj, females, in drinking water, site: liver, lesion: hepatocellular carcinoma, dosed 104 weeks, study length 105 weeks)?
Its TD50 is 1120 mg/kg/day.

What about the TD50 (rat, strain F344/DuCrj, females, in drinking water, site: liver, lesion: several types, types named in the paper, dosed 104 weeks, study length 105 weeks) of the same compound?
Its TD50 is 167 mg/kg/day.

And the TD50 (rat, strain F344/DuCrj, females, in drinking water, site: mammary gland, lesion: adenoma, dosed 104 weeks, study length 105 weeks)?
Its TD50 is 772 mg/kg/day.

And the TD50 (rat, strain F344/DuCrj, females, in drinking water, site: nasal cavity, lesion: esthesioneuroepithelioma, dosed 104 weeks, study length 105 weeks)?
Its TD50 is 12200 mg/kg/day.

What about the TD50 (rat, strain F344/DuCrj, females, in drinking water, site: nasal cavity, lesion: malignant tumor, dosed 104 weeks, study length 105 weeks) of the same compound?
Its TD50 is 1430 mg/kg/day.

And the TD50 (rat, strain F344/DuCrj, females, in drinking water, site: nasal cavity, lesion: squamous-cell carcinoma, dosed 104 weeks, study length 105 weeks)?
Its TD50 is 1650 mg/kg/day.

And the TD50 (rat, strain F344/DuCrj, males, in drinking water, site: liver, lesion: hepatocellular adenoma, dosed 104 weeks, study length 105 weeks)?
Its TD50 is 279 mg/kg/day.

And the TD50 (rat, strain F344/DuCrj, males, in drinking water, site: liver, lesion: hepatocellular carcinoma, dosed 104 weeks, study length 105 weeks)?
Its TD50 is 676 mg/kg/day.

And the TD50 (rat, strain F344/DuCrj, males, in drinking water, site: liver, lesion: several types, types named in the paper, dosed 104 weeks, study length 105 weeks)?
Its TD50 is 189 mg/kg/day.

What about the TD50 (rat, strain F344/DuCrj, males, in drinking water, site: mammary gland, lesion: fibroadenoma, dosed 104 weeks, study length 105 weeks) of the same compound?
Its TD50 is 3070 mg/kg/day.

What about the TD50 (rat, strain F344/DuCrj, males, in drinking water, site: nasal cavity, lesion: esthesioneuroepithelioma, dosed 104 weeks, study length 105 weeks) of the same compound?
Its TD50 is 10600 mg/kg/day.

What about the TD50 (rat, strain F344/DuCrj, males, in drinking water, site: nasal cavity, lesion: malignant tumor, dosed 104 weeks, study length 105 weeks) of the same compound?
Its TD50 is 1440 mg/kg/day.

And the TD50 (rat, strain F344/DuCrj, males, in drinking water, site: nasal cavity, lesion: rhabdomyosarcoma, dosed 104 weeks, study length 105 weeks)?
Its TD50 is 10600 mg/kg/day.

And the TD50 (rat, strain F344/DuCrj, males, in drinking water, site: nasal cavity, lesion: sarcoma, NOS, dosed 104 weeks, study length 105 weeks)?
Its TD50 is 5270 mg/kg/day.

And the TD50 (rat, strain F344/DuCrj, males, in drinking water, site: nasal cavity, lesion: squamous-cell carcinoma, dosed 104 weeks, study length 105 weeks)?
Its TD50 is 3490 mg/kg/day.

What about the TD50 (rat, strain F344/DuCrj, males, in drinking water, site: peritoneum, lesion: mesothelioma, dosed 104 weeks, study length 105 weeks) of the same compound?
Its TD50 is 246 mg/kg/day.

What about the TD50 (rat, strain F344/DuCrj, males, in drinking water, site: subcutaneous tissue, lesion: fibroma, dosed 104 weeks, study length 105 weeks) of the same compound?
The TD50 was 922 mg/kg/day.

And the TD50 (rat, strain Osborne-Mendel, females, in drinking water, site: any site (literature study), lesion: several types, types named in the paper, dosed 110 weeks, study length 111 weeks)?
The TD50 was 40.5 mg/kg/day.

And the TD50 (rat, strain Osborne-Mendel, females, in drinking water, site: liver + nasal turbinate, lesion: hepatocellular adenoma + squamous-cell carcinoma, dosed 110 weeks, study length 111 weeks)?
Its TD50 is 126 mg/kg/day.

What about the TD50 (rat, strain Osborne-Mendel, females, in drinking water, site: liver, lesion: hepatocellular adenoma + hepatocellular carcinoma + neoplastic nodule, dosed 110 weeks, study length 111 weeks) of the same compound?
The TD50 was 124 mg/kg/day.

What about the TD50 (rat, strain Osborne-Mendel, females, in drinking water, site: liver, lesion: hepatocellular adenoma, dosed 110 weeks, study length 111 weeks) of the same compound?
The TD50 was 160 mg/kg/day.

And the TD50 (rat, strain Osborne-Mendel, females, in drinking water, site: nasal turbinate, lesion: squamous-cell carcinoma, dosed 110 weeks, study length 111 weeks)?
Its TD50 is 476 mg/kg/day.

What about the TD50 (rat, strain Osborne-Mendel, males, in drinking water, site: any site (literature study), lesion: several types, types named in the paper, dosed 110 weeks, study length 110 weeks) of the same compound?
The TD50 was 114 mg/kg/day.

What about the TD50 (rat, strain Osborne-Mendel, males, in drinking water, site: liver, lesion: hepatocellular adenoma + hepatocellular carcinoma + neoplastic nodule, dosed 110 weeks, study length 110 weeks) of the same compound?
Its TD50 is 796 mg/kg/day.

And the TD50 (rat, strain Osborne-Mendel, males, in drinking water, site: nasal turbinate, lesion: squamous-cell carcinoma, dosed 110 weeks, study length 110 weeks)?
The TD50 was 168 mg/kg/day.

What about the TD50 (rat, strain Sherman, both sexes, in drinking water, site: liver, lesion: hepatocellular carcinoma, dosed 104 weeks, study length 104 weeks) of the same compound?
Its TD50 is 2500 mg/kg/day.

What about the TD50 (rat, strain Sherman, both sexes, in drinking water, site: liver, lesion: several types, types named in the paper, dosed 104 weeks, study length 104 weeks) of the same compound?
The TD50 was 2120 mg/kg/day.

And the TD50 (rat, strain Sherman, both sexes, in drinking water, site: nasal turbinate, lesion: squamous-cell carcinoma, dosed 104 weeks, study length 104 weeks)?
The TD50 was 15900 mg/kg/day.

And the TD50 (rat, strain Wistar, both sexes, in drinking water, site: any site (literature study), lesion: several types, types named in the paper, dosed 63 weeks, study length 64 weeks)?
The TD50 was 690 mg/kg/day.

And the TD50 (rat, strain Wistar, both sexes, in drinking water, site: liver, lesion: hepatoma, dosed 63 weeks, study length 64 weeks)?
The TD50 was 515 mg/kg/day.

Reference: PubChem BioAssay AID1745844 (Carcinogenic Potency Database (CPDB), 2022)
